According to patent US20260234129A1, “NOVEL IMIDAZOLE DERIVATIVE AND USE THEREOF” (PELEMED CO., LTD., priority 2023, published 2026):
pIC50: −log10 of the molar value.

Legend:
[1] = tested on: BaF3-ITD-FLT3 D835Y cell line; assay: Cell proliferation inhibition, Alamar Blue; format: cell-based; settings: 72 hours of compound treatment, read-out: Cellular (GI50) BaF3-ITD-FLT3 D835Y
Protocol: (§1) The cell proliferation inhibition experiment on acute myeloid leukemia (AML) cell lines was performed using FL3-ITD-expressing AML cell line MV4-11, BaF3-ITD-FLT3 F691L cell line, and BaF3-ITD-FLT3 D835Y cell line to test FLT3 inhibitory activity. All cell lines were human-derived cell lines, and the sources and culture conditions for each cell line are as follows.
(§2) Cell viability was assessed by a resazurin redox-based assay using the Alamar Blue Assay kit (Invitrogen, USA). Specifically, MV4-11, BaF3-ITD-FLT3-F691L, and BaF3-ITD-FLT3-D835Y cells were plated in 384-well plates at 8,000 cells in 45 μL of medium. As a negative control, dimethyl sulfoxide (DMSO) was added together with the compound. After three days (72 hours) of compound treatment, 5 μL of the Alamar Blue kit reagent was added to each well of the 384-well plates, followed by incubation at 37° C. for 2 hours in a humidified CO2 incubator. After incubation, fluorescence intensity (Flu) was measured at 544 nm and 590 nm using a SpectraMax iD3 Multi Mode Microplate Reader (Molecular Devices, ID3-STD).

[2] = tested on: BaF3-ITD-FLT3 F691L cell line; assay: Cell proliferation inhibition, Alamar Blue; format: cell-based; settings: 72 hours of compound treatment, read-out: Cellular (GI50) BaF3-ITD-FLT3 F691L
Protocol: as §1, §2

[3] = tested on: MV4-11 cells (FLT3-ITD-expressing AML cell line); assay: Cell proliferation inhibition, Alamar Blue; format: cell-based, human; settings: Homo sapiens, MV4-11, 72 hours of compound treatment, read-out: Cellular (GI50) MV4-11
Protocol: as §1, §2

FLT3 = biological target: T1, FLT3 (Homo sapiens, UniProt P36888); assay: ADP-Glo kinase assay FLT3 WT; format: biochemical; settings: recombinant FLT3, 120 minutes at room temperature, read-out: Enzyme (IC50) FLT3 WT
T1 construct: Recombinant proteins containing FLT3 and FLT3(D835Y) domains were purchased from Promega; purchased Promega V4064
T1 sequence (P36888 610-943 limits assumed): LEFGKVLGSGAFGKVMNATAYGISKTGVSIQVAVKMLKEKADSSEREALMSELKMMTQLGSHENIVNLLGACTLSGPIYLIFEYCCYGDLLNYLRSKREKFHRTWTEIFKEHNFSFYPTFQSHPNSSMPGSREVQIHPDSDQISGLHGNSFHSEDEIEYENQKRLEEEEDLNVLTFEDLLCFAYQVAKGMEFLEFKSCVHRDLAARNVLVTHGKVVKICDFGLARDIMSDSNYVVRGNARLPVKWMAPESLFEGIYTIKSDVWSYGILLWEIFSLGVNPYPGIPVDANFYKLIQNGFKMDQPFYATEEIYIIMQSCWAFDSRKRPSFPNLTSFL
Protocol: (§3) FLT3 activity inhibition was measured using the ADP-Glo kinase assay method (Promega, cat #V9101). The ADP-Glo kinase assay method is a luminescent ADP detection assay method that provides a homogeneous, high-throughput screening method for measuring kinase activity by quantifying the amount of ADP produced during the kinase reaction.
(§4) The assay was performed in two steps. First, after the kinase reaction, an equal volume of ADP-Glo™ reagent was added to terminate the kinase reaction and deplete any remaining ATP. Second, a kinase detection reagent was added to convert ADP to ATP, and simultaneously the newly synthesized ATP was measured via the luciferase/luciferin reaction. The light produced was measured using a luminometer.
Recombinant proteins containing FLT3 and FLT3(D835Y) domains were purchased from Promega (cat #V4064, cat #V4514), respectively. According to the manufacturer's instructions, the optimal enzyme, ATP, and substrate concentrations were optimized using the ADP-Glo™ kinase assay method (Promega, USA). […] Thereafter, ADP-Glo™ reagent (5 μl) was added and reacted for an additional 40 minutes at room temperature. Finally, the detection reagent (kinase detection reagent, 10 μl) was added, followed by reaction at room temperature for 30 minutes, and the phosphorylation of the substrate peptide was measured by detecting the luciferase signal (integration time 0.5~1 sec) using a SpectraMax ID5 reader (Molecular Devices LLC., San Jose, CA, USA).

FLT3(D835Y) = biological target: T2, FLT3(D835Y) (Homo sapiens, UniProt P36888, D835Y); assay: ADP-Glo kinase assay FLT3 D835Y; format: biochemical; settings: recombinant FLT3(D835Y), 120 minutes at room temperature, read-out: Enzyme (IC50) FLT3 D835Y
T2 construct: Recombinant proteins containing FLT3 and FLT3(D835Y) domains were purchased from Promega; purchased Promega V4514
Protocol: as §3, §4
Recombinant proteins containing FLT3 and FLT3(D835Y) domains were purchased from Promega (cat #V4064, cat #V4514), respectively. According to the manufacturer's instructions, the optimal enzyme, ATP, and substrate concentrations were optimized using the ADP-Glo™ kinase assay method (Promega, USA). […] Finally, the detection reagent (kinase detection reagent, 10 μl) was added, followed by reaction at room temperature for 30 minutes, and the phosphorylation of the substrate peptide was measured by detecting the luciferase signal (integration time 0.5~1 sec) using a SpectraMax ID5 reader (Molecular Devices LLC., San Jose, CA, USA).

Structure (SMILES)	GI50 [1] [nM]	GI50 [2] [nM]	GI50 [3] [nM]	pIC50 (FLT3)	pIC50 (FLT3(D835Y))
N[C@H]1CC[C@H](NC(=O)c2ccc3[nH]nc(-c4nc5ccc(N6CCCCC6)cc5[nH]4)c3c2)C1 [Example 31, N-((1S,3S)-3-aminocyclopentyl)-3-(6-(piperidin-1-yl)-1H-benzo[d]imidazol-2-yl)-1H-indazole-5-carboxamide]	< 10	10 to 100	< 10	> 8.00	
NCCCNC(=O)c1ccc2[nH]nc(-c3nc4ccc(C(=O)N5CCOCC5)cc4[nH]3)c2c1 [Example 21, N-(3-aminopropyl)-3-(6-(morpholine-4-carbonyl)-1H-benzo[d]imidazol-2-yl)-1H-indazole-5-carboxamide]			100 to 1000	> 8.00	> 8.00
O=C(NCC1CC(F)(F)C1)c1ccc2[nH]nc(-c3nc4ccc(N5CCCC5)cc4[nH]3)c2c1 [Example 14, N-((3,3-difluorocyclobutyl)methyl)-3-(6-(pyrrolidin-1-yl)-1H-benzo[d]imidazol-2-yl)-1H-indazole-5-carboxamide]	10 to 100	100 to 1000	10 to 100		
